Results from ChEMBL document CHEMBL3045835, “Comparative study of conventional and microwave-assisted synthesis of some Schiff bases and their potential as antimicrobial agents” (2012).
In brackets after ≈: the same amount, converted by molar mass.

How the values were obtained:
Format in all cases: functional
[1] = test system: Pseudomonas fluorescens; test: Antibacterial activity against Pseudomonas fluorescens MTCC 2421 at 1500 ug/ml after 18 hr by cup-plate method; details: MTCC 2421, 18 h, read-out: DIZ
[2] = test system: Pseudomonas fluorescens; test: Antibacterial activity against Pseudomonas fluorescens MTCC 2421 at 1000 ug/ml after 18 hr by cup-plate method; details: MTCC 2421, 18 h, read-out: DIZ
[3] = test system: Bacillus subtilis; test: Antibacterial activity against Bacillus subtilis MTCC 441 at 100 ug/ml after 18 hr by cup plate method; details: MTCC 441, 18 h, read-out: DIZ
[4] = test system: Bacillus subtilis; test: Antibacterial activity against Bacillus subtilis MTCC 441 after 24 hr by broth dilution method; details: MTCC 441, 24 h
[5] = test system: Bacillus pumilus; test: Antibacterial activity against Bacillus pumilus MTCC 1456 at 200 ug/ml after 18 hr by cup-plate method; details: MTCC 1456, 18 h, read-out: DIZ
[6] = test system: Staphylococcus aureus; test: Antibacterial activity against Staphylococcus aureus MTCC 1430 at 100 ug/ml after 18 hr by cup-plate method; details: MTCC 1430, 18 h, read-out: DIZ
[7] = test system: Aspergillus niger; test: Antifungal activity against Aspergillus niger MTCC 2546 at 500 ug/ml after 18 hr by cup-plate method; details: MTCC 2546, 18 h, read-out: DIZ
[8] = test system: Escherichia coli; test: Antibacterial activity against Escherichia coli MTCC 1573 at 200 ug/ml after 18 hr by cup-plate method; details: MTCC 1573, 18 h, read-out: DIZ
[9] = test system: Bacillus pumilus; test: Antibacterial activity against Bacillus pumilus MTCC 1456 after 24 hr by broth dilution method; details: MTCC 1456, 24 h
[10] = test system: Bacillus pumilus; test: Antibacterial activity against Bacillus pumilus MTCC 1456 at 500 ug/ml after 18 hr by cup-plate method; details: MTCC 1456, 18 h, read-out: DIZ
[11] = test system: Bacillus pumilus; test: Antibacterial activity against Bacillus pumilus MTCC 1456 at 1000 ug/ml after 18 hr by cup-plate method; details: MTCC 1456, 18 h, read-out: DIZ
[12] = test system: Penicillium chrysogenum; test: Antifungal activity against Penicillium chrysogenum MTCC 161 at 100 ug/ml after 18 hr by cup-plate method; details: MTCC 161, 18 h, read-out: DIZ
[13] = test system: Micrococcus luteus; test: Antibacterial activity against Micrococcus luteus MTCC 1538 after 24 hr by broth dilution method; details: MTCC 1538, 24 h
[14] = test system: Bacillus subtilis; test: Antibacterial activity against Bacillus subtilis MTCC 441 at 1500 ug/ml after 18 hr by cup plate method; details: MTCC 441, 18 h, read-out: DIZ
[15] = test system: Pseudomonas aeruginosa; test: Antibacterial activity against Pseudomonas aeruginosa MTCC 424 at 100 ug/ml after 18 hr by cup-plate method; details: MTCC 424, 18 h, read-out: DIZ
[16] = test system: Aspergillus niger; test: Antifungal activity against Aspergillus niger MTCC 2546 at 1500 ug/ml after 18 hr by cup-plate method; details: MTCC 2546, 18 h, read-out: DIZ
[17] = test system: Pseudomonas fluorescens; test: Antibacterial activity against Pseudomonas fluorescens MTCC 2421 at 100 ug/ml after 18 hr by cup-plate method; details: MTCC 2421, 18 h, read-out: DIZ
[18] = test system: Staphylococcus aureus; test: Antibacterial activity against Staphylococcus aureus MTCC 1430 at 500 ug/ml after 18 hr by cup-plate method; details: MTCC 1430, 18 h, read-out: DIZ
[19] = test system: Aspergillus niger; test: Antifungal activity against Aspergillus niger MTCC 2546 at 200 ug/ml after 18 hr by cup-plate method; details: MTCC 2546, 18 h, read-out: DIZ
[20] = test system: Penicillium chrysogenum; test: Antifungal activity against Penicillium chrysogenum MTCC 161 after 24 hr by broth dilution method; details: MTCC 161, 24 h
[21] = test system: Bacillus subtilis; test: Antibacterial activity against Bacillus subtilis MTCC 441 at 500 ug/ml after 18 hr by cup plate method; details: MTCC 441, 18 h, read-out: DIZ
[22] = test system: Micrococcus luteus; test: Antibacterial activity against Micrococcus luteus MTCC 1538 at 200 ug/ml after 18 hr by cup-plate method; details: MTCC 1538, 18 h, read-out: DIZ
[23] = test system: Bacillus pumilus; test: Antibacterial activity against Bacillus pumilus MTCC 1456 at 100 ug/ml after 18 hr by cup-plate method; details: MTCC 1456, 18 h, read-out: DIZ
[24] = test system: Escherichia coli; test: Antibacterial activity against Escherichia coli MTCC 1573 at 1000 ug/ml after 18 hr by cup-plate method; details: MTCC 1573, 18 h, read-out: DIZ
[25] = test system: Pseudomonas aeruginosa; test: Antibacterial activity against Pseudomonas aeruginosa MTCC 424 at 500 ug/ml after 18 hr by cup-plate method; details: MTCC 424, 18 h, read-out: DIZ
[26] = test system: Pseudomonas aeruginosa; test: Antibacterial activity against Pseudomonas aeruginosa MTCC 424 at 200 ug/ml after 18 hr by cup-plate method; details: MTCC 424, 18 h, read-out: DIZ
[27] = test system: Bacillus subtilis; test: Antibacterial activity against Bacillus subtilis MTCC 441 at 200 ug/ml after 18 hr by cup plate method; details: MTCC 441, 18 h, read-out: DIZ

For Cc1cccnc1/N=C/c1cccc2ccccc12, the zone of inhibition at 1500 µg/mL [1] was 24 mm, the zone of inhibition at 1000 µg/mL [2] was 23 mm and the zone of inhibition at 100 µg/mL [3] was 12 mm. For the same compound, the MIC [4] was 50 µg/mL (≈ 203 µM), the zone of inhibition at 200 µg/mL [5] was 16 mm and the zone of inhibition at 100 µg/mL [6] was 10 mm. The zone of inhibition at 500 µg/mL [7] was 19 mm, the zone of inhibition at 200 µg/mL [8] was 14 mm and the MIC [9] was 200 µg/mL (≈ 812 µM). For the same compound, the zone of inhibition at 500 µg/mL [10] was 18 mm, the zone of inhibition at 1000 µg/mL [11] was 19 mm and the zone of inhibition at 100 µg/mL [12] was 11 mm. The MIC [13] was 200 µg/mL (≈ 812 µM), the zone of inhibition at 1500 µg/mL [14] was 19 mm and the zone of inhibition at 100 µg/mL [15] was 12 mm. The zone of inhibition at 1500 µg/mL [16] was 21 mm, the zone of inhibition at 100 µg/mL [17] was 17 mm and the zone of inhibition at 500 µg/mL [18] was 15 mm. It also gave a zone of inhibition at 200 µg/mL [19] of 16 mm, an MIC [20] of 400 µg/mL (≈ 1620 µM) and a zone of inhibition at 500 µg/mL [21] of 16 mm. It also gave a zone of inhibition at 200 µg/mL [22] of 18 mm, a zone of inhibition at 100 µg/mL [23] of 13 mm and a zone of inhibition at 1000 µg/mL [24] of 16 mm. For the same compound, the zone of inhibition at 500 µg/mL [25] was 14 mm, the zone of inhibition at 200 µg/mL [26] was 13 mm and the zone of inhibition at 200 µg/mL [27] was 13 mm.
